ChEMBL document CHEMBL1764947, “Symmetric double-headed aminopyridines, a novel strategy for potent and membrane-permeable inhibitors of neuronal nitric oxide synthase” (J Med Chem, 2011)

Experiments:
[1] = target: Nitric oxide synthase 1 (Rattus norvegicus, UniProt P29476); assay: Inhibition of rat recombinant nNOS expressed in Escherichia coli by UV-vis spectrometric analysis
[2] = Selectivity ratio of Ki for bovine recombinant eNOS to Ki for rat recombinant nNOS
[3] = Selectivity ratio of Ki for murine macrophage recombinant iNOS to Ki for rat recombinant nNOS
[4] = target: T1, Nitric oxide synthase 3 (Bos taurus, UniProt P29473); assay: Inhibition of bovine recombinant eNOS expressed in Escherichia coli by UV-vis spectrometric analysis
T1 sequence (P29473 whole entry): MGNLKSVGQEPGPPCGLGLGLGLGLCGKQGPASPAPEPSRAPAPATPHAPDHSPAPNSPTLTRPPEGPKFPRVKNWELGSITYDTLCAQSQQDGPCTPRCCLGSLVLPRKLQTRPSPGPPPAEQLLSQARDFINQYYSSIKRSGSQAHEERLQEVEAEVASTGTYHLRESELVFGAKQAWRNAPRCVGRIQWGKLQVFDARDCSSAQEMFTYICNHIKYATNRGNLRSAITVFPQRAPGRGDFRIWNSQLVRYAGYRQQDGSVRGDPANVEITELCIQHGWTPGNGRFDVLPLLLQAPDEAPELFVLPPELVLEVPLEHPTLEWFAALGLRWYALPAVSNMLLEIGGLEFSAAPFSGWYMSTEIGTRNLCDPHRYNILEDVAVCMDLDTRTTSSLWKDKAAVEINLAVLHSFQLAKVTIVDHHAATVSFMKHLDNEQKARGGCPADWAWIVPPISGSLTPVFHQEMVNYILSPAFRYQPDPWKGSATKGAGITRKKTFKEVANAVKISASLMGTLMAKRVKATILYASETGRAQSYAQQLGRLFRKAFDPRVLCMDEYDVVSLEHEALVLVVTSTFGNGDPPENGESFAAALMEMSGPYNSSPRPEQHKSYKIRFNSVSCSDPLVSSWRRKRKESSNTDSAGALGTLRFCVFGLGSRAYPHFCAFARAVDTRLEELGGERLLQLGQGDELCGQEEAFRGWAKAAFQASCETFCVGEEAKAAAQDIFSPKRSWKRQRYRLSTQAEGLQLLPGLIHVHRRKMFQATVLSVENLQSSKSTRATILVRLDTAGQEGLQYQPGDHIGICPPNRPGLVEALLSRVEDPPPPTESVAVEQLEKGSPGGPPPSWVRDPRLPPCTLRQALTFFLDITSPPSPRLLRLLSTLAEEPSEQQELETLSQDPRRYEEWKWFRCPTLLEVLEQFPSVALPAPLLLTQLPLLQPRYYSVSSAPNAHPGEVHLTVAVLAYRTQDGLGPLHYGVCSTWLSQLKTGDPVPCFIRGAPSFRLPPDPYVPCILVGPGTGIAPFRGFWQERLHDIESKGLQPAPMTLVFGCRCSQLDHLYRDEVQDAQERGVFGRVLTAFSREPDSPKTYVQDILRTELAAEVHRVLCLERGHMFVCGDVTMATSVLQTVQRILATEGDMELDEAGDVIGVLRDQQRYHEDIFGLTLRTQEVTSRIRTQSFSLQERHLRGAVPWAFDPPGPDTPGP

[5] = target: T2, Nitric oxide synthase, inducible (Mus musculus, UniProt P29477); assay: Inhibition of mouse macrophage recombinant iNOS expressed in Escherichia coli by UV-vis spectrometric analysis
T2 sequence (P29477 whole entry): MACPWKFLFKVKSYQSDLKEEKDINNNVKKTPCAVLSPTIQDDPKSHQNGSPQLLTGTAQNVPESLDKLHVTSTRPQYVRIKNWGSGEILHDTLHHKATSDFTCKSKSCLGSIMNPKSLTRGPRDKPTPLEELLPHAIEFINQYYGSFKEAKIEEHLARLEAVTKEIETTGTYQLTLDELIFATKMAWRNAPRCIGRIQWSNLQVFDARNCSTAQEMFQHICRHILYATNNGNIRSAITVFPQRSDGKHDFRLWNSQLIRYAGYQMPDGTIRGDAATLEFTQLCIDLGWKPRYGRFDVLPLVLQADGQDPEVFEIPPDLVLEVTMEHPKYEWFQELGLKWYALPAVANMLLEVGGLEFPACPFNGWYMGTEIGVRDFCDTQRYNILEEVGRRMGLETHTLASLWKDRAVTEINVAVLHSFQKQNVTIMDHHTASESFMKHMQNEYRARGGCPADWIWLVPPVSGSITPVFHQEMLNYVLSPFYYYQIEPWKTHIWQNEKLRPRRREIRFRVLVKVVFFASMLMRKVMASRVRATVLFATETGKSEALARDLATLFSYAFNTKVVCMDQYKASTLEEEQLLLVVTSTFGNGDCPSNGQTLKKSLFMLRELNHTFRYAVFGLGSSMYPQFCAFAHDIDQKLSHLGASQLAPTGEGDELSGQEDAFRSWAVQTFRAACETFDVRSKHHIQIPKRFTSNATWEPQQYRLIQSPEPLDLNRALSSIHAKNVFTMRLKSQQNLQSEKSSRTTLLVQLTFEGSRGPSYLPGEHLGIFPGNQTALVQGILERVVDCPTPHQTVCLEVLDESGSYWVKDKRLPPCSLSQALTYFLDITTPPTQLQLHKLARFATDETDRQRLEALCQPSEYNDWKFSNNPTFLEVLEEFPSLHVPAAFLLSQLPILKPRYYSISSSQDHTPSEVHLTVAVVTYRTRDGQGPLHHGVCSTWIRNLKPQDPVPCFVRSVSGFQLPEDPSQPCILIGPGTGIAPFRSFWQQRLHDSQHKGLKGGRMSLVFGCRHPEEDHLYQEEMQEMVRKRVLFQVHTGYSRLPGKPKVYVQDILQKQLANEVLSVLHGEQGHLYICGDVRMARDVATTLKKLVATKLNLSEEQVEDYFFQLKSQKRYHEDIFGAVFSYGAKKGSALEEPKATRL

Sequence of Nitric oxide synthase 1 (P29476 whole entry): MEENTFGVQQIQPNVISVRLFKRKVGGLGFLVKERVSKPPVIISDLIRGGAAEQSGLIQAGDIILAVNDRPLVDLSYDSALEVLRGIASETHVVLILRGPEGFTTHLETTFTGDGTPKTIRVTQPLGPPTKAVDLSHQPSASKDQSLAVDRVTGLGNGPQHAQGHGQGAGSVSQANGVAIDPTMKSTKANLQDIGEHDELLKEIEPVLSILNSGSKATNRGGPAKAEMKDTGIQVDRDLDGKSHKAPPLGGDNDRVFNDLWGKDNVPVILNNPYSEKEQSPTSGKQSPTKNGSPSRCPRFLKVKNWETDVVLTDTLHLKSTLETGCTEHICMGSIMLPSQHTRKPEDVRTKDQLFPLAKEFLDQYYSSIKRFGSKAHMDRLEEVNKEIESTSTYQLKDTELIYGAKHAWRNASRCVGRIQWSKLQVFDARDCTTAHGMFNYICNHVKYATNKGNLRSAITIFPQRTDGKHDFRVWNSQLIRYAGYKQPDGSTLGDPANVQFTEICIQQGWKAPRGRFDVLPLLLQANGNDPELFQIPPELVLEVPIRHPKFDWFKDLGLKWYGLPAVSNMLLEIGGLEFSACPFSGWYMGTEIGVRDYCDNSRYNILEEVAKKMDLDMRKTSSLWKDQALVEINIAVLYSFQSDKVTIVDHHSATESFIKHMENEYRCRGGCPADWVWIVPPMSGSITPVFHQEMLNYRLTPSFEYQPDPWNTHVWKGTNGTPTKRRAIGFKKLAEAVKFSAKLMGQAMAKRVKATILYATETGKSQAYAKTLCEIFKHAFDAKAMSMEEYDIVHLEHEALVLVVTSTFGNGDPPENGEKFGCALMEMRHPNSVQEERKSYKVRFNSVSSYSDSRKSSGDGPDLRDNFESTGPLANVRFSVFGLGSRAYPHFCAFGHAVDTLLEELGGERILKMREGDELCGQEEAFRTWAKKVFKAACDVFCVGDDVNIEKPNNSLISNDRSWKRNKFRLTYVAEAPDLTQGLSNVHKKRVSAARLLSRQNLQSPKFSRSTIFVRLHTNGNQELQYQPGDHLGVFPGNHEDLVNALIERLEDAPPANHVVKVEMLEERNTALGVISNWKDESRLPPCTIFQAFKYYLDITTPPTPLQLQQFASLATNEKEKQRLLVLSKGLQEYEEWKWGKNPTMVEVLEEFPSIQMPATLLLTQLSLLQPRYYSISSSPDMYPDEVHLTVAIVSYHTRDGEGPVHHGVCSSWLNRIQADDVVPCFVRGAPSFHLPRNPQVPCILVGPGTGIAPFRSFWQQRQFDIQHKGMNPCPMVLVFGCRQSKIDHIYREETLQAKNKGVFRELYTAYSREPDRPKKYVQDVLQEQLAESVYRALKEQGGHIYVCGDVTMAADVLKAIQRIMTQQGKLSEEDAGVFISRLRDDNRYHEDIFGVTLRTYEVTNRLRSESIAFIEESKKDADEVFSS

SMILES | Ki [1] [µM] | Ratio Ki [2] | Ratio Ki [3] | Ki [4] [µM] | Ki [5] [µM]
Cc1cc(N)nc(CCc2ccc3ccc(CCc4cc(C)nc(N)c4)cc3c2)c1 | > 1 | – | – | – | –
Cc1cc(N)nc(CCc2ccc3cc(CCc4cc(C)cc(N)n4)ccc3c2)c1 | – | 7.22 | 9.42 | – | –
Cc1cc(N)nc(CCc2cccc(CCc3cc(C)nc(N)c3)c2)c1 | – | 111 | 71.8 | – | –
Cc1cc(CCc2cccc(CCc3cc(C)nc(N)c3)c2)cc(N)n1 | > 1 | – | – | – | –
Cc1cc(N)nc(CCc2cc(N)cc(CCc3cc(C)cc(N)n3)c2)c1 | 0.085 | 58 | 40 | 4.95 | 3.4
Cc1cc(N)nc(CCc2cccc(CCc3cc(C)nc(N)c3)n2)c1 | 0.195 | – | – | 20 | 12.6
Cc1cc(C)nc(NCc2ccc3cc(CNc4cc(C)cc(C)n4)ccc3c2)c1 | > 1 | – | – | – | –
Cc1cc(N)nc(CCc2ccc3ccc(CCc4cc(C)cc(N)n4)cc3c2)c1 | – | 14.9 | 20.1 | – | –
Cc1cc(N)nc(CCc2ccc(CCc3cc(C)cc(N)n3)cc2)c1 | – | 24.6 | 24.8 | – | –
Cc1cc(N)nc(CCc2cccc(CCc3cc(C)cc(N)n3)n2)c1 | – | 95 | 48 | – | –
Cc1cc(N)nc(CCc2cncc(CCc3cc(C)nc(N)c3)c2)c1 | – | 156 | 19 | – | –
